Literature values as cited in patent US20070071706A1, “Lipodissolving dermatological topical preparation” (priority 2005, published 2007).

Details: used as transdermal permeability enhancer / carrier; delivered substance erythromycin; rats

CC(O)CO (centres unmarked) [propylene glycol]
local accumulation in the subcutaneous tissue of the substance being transdermally delivered: very negligible and short living subcutaneous accumulation
systemic absorption of the substance being transdermally delivered: good systemic absorption
